# Assays:
# [1] = system: hypercholesterolemic/diet induced obese C57BL/6 mouse; assay: Treatment of hypercholesterolemic/diet induced obese C57BL/6 mice with ezetimibe; assay type: in vivo; conditions: 5 mg/kg/day
# Experimental: The hypercholesterolemic/diet induced obese C57BL/6 mouse can be used to evaluate the vivo efficacy of a cholesterol absorption inhibitor, ezetimibe, in combination with a selective CB1 receptor antagonist, rimonabant. Feeding mice a “western” diet containing 45 kcal % of fat and 0.15% cholesterol diet for 21 days increased plasma cholesterol to 150 mg/dL and increased hepatic cholesteryl esters 2-fold.
# Nonfasted plasma cholesterol levels were determined by a modification of the cholesterol oxidase method, in which the reagents were available in a kit form from Wako Pure Chemicals Industries, Ltd. (Osaka, Japan). Samples of liver (0.2 g) were lipid extracted. Lipid extracts were dried under nitrogen into HPLC sample vials, resuspended in hexane and injected onto a Zorbax Sil (4.6×25 cm) silica column. Chromatography was performed using an isocratic mobile phase containing 98.8% hexane and 1.2% isopropanol at a flow rate of 2 mL/min. Lipids were detected by absorbance at 206 nm and quantitated by computer integration (System Gold, Beckman) of elution profiles. Elution time for cholesteryl ester was 1.45 min. Cholesteryl ester content of liver-derived samples was derived from a standard curve constructed using known amounts of cholesteryl oleate. Cholesteryl oleate was used as the standard since this is the major cholesteryl ester species present in the liver and this specific cholesteryl ester has an extinction coefficient that approximates that of a weighted average for all the cholesteryl esters present in the liver.
# [2] = system: obese, hyperinsulinemic hamsters; conditions: ezetimibe treatment; cited from earlier work
# Diet induced obese mice = assay: Treatment of diet induced obese C57BL/6 mice with rimonabant; assay type: in vivo, mouse; conditions: 1, 3 and 10 mg/kg p.o. once a day for 5 consecutive days; western diet 16 weeks; at all doses
# Experimental: Plasma leptin and insulin were determined using commercially available ELISA kits (Crystal Chem and ALPCO for leptin and insulin, respectively). Whole body adiposity was determined using an NMR based method (EchoMRI, Echo Medical Inc.).
# diet-induced obese mice = conditions: mouse, in vivo; cited from earlier work
# patients = conditions: cited from earlier work
Structure (SMILES),accumulation of hepatic cholesteryl esters ([1]; western diet 21 days),"hepatic cholesteryl esters ([1]; western diet 21 days, control 12.8 mg/g) [mg/g]","plasma cholesterol levels ([1]; western diet (45 kcal % fat, 0.15% cholesterol) for 21 days, diet control 150 mg/dL) [mg/dL]",body weights [2],food consumption [2],plasma leptin levels [2],adiposity (Diet induced obese mice),body weight (Diet induced obese mice),cumulative food intake (Diet induced obese mice),plasma insulin levels (Diet induced obese mice),plasma leptin levels (Diet induced obese mice),plasma cholesterol levels (diet-induced obese mice),serum high density lipoprotein (HDL) levels (patients),triglyceride levels (patients)
"O=C1[C@H](CC[C@H](O)c2ccc(F)cc2)[C@@H](c2ccc(O)cc2)N1c1ccc(F)cc1 [Ezetimibe, ezetimibe]",completely inhibited,4.6,102,does not appear to cause any changes,does not appear to cause any changes,does not appear to cause any changes,–,–,–,–,–,–,–,–
Cc1c(C(=O)NN2CCCCC2)nn(-c2ccc(Cl)cc2Cl)c1-c1ccc(Cl)cc1 [rimonabant],–,–,–,–,–,–,significant dose dependent reduction,significant dose dependent reduction,significant dose dependent reduction,significant dose dependent reduction,significant dose dependent reduction,does not appear to reduce,increase,decrease

# From patent US20060069080A1, “Combinations of substituted azetidinones and CB1 antagonists” (priority 2004, published 2006)
